Legend:
direct sown rice [1] = experiment: Herbicidal effect test by soil treatment; type: in vivo, Oryza sativa; settings: 1.6 g/a, 3 weeks after treatment
Description: (§1) Herbicidal Effect Test by Soil Treatment
(§2) Sterilized diluvial soil was placed in a plastic box having a size of length 21 cm, width 13 cm and depth 7 cm, seeds Echinochloa crus-galli, Digitaria adscendes, Setaria viridis, Avena fatua, Black-grass, Abutilon avicennae, Ambrosia elatior, Amaranthus retroflexus, Chenopodium album, Polygonum blumei, Stellaria media, Zea mays (corn), Glycine max (soybean), Oryza sativa (rice), Triticum aestivum (wheat) and Beta vulgaris (beat) were sown interspatially, covered with about 1.5 cm of soil, and then the wettable powder of the present invention prepared according to Formulation Example 1 was diluted with water so as to give a predetermined formulation amount, and the surface of the soil was uniformly treated with the diluted wettable powder by use of a small-sized spray. The herbicidal effect for each plant was investigated 3 weeks after treatment with the herbicide according to the criteria indicated in Test Example 1.

direct sown rice [2] = experiment: Herbicidal effect test by foliage treatment; type: in vivo, Oryza sativa; settings: 1.6 g/a; foliage treatment after growth of 14 days; 3 weeks after treatment
Description: (§3) Herbicidal Effect Test by Foliage Treatment
(§4) Sterilized diluvial soil was placed in a plastic box having a size of length 21 cm, width 13 cm and depth 7 cm, seeds of Echinochloa crus-galli, Digitaria adscendes, Setaria viridis, Avena fatua, Black-grass, Abutilon avicennae, Ambrosia elatior, Amaranthus retroflexus, Chenopodium album, Polygonum blumei, Stellaria media, Zea mays, Glycine max, Oryza sativa, Triticum aestivum and Beta vulgaris were sown interspatially, covered with about 1.5 cm of soil, and then the plants were grown by putting the box in a green house at 25 to 30° C. After growth of 14 days, the wettable powder of the present invention prepared according to Formulation Example 1 was diluted with water so as to give a predetermined formulation amount, and the foliage part was uniformly treated with the diluted wettable powder by use of a small-sized spray. The herbicidal effect for each plant was investigated 3 weeks after treatment with the herbicide according to the criteria indicated in Test Example 1.

Abutilon avicennae [3] = experiment: Herbicidal effect test by foliage treatment; type: in vivo; settings: 1.6 g/a; foliage treatment after growth of 14 days; 3 weeks after treatment
Description: as §3, §4

Ambrosia elatior [4] = experiment: Herbicidal effect test by foliage treatment; type: in vivo; settings: 1.6 g/a; foliage treatment after growth of 14 days; 3 weeks after treatment
Description: as §3, §4

soybean (Glycine max) [5] = experiment: Herbicidal effect test by foliage treatment; type: in vivo; settings: 1.6 g/a; foliage treatment after growth of 14 days; 3 weeks after treatment
Description: as §3, §4

Setaria viridis [6] = experiment: Herbicidal effect test by foliage treatment; type: in vivo; settings: 1.6 g/a; foliage treatment after growth of 14 days; 3 weeks after treatment
Description: as §3, §4

Beta vulgaris (beet) [7] = experiment: Herbicidal effect test by foliage treatment; type: in vivo; settings: 1.6 g/a; foliage treatment after growth of 14 days; 3 weeks after treatment
Description: as §3, §4

corn (Zea mays) [8] = experiment: Herbicidal effect test by foliage treatment; type: in vivo; settings: 1.6 g/a; foliage treatment after growth of 14 days; 3 weeks after treatment
Description: as §3, §4

Black-grass = experiment: Herbicidal effect test by foliage treatment; type: in vivo; settings: 1.6 g/a; foliage treatment after growth of 14 days; 3 weeks after treatment
Description: as §3, §4

Stellaria media [9] = experiment: Herbicidal effect test by foliage treatment; type: in vivo; settings: 1.6 g/a; foliage treatment after growth of 14 days; 3 weeks after treatment
Description: as §3, §4

Digitaria adscendes [10] = experiment: Herbicidal effect test by foliage treatment; type: in vivo; settings: 1.6 g/a; foliage treatment after growth of 14 days; 3 weeks after treatment
Description: as §3, §4

Avena fatua = experiment: Herbicidal effect test by foliage treatment; type: in vivo; settings: 1.6 g/a; foliage treatment after growth of 14 days; 3 weeks after treatment
Description: as §3, §4

Echinochloa crus-galli [11] = experiment: Herbicidal effect test by foliage treatment; type: in vivo; settings: 1.6 g/a; foliage treatment after growth of 14 days; 3 weeks after treatment
Description: as §3, §4

Polygonum blumei [12] = experiment: Herbicidal effect test by foliage treatment; type: in vivo; settings: 1.6 g/a; foliage treatment after growth of 14 days; 3 weeks after treatment
Description: as §3, §4

Chenopodium album [13] = experiment: Herbicidal effect test by foliage treatment; type: in vivo; settings: 1.6 g/a; foliage treatment after growth of 14 days; 3 weeks after treatment
Description: as §3, §4

Amaranthus retroflexus [14] = experiment: Herbicidal effect test by foliage treatment; type: in vivo; settings: 1.6 g/a; foliage treatment after growth of 14 days; 3 weeks after treatment
Description: as §3, §4

[15] = test system: Triticum aestivum (wheat); experiment: Herbicidal effect test by foliage treatment; type: in vivo; settings: 1.6 g/a; foliage treatment after growth of 14 days; 3 weeks after treatment
Description: as §3, §4

Scirpus juncoides [16] = experiment: Herbicidal effect test in submerged condition by treatment before weed-generation (1); type: in vivo; settings: 0.64 g/a, water surface treated on day of sowing, 3 weeks after treatment
Description: (§5) Herbicidal Effect Test in Submerged Condition by Treatment Before Weed-Generation (1)
(§6) After alluvial soil was placed in a styrol cup of 1/30000 are, water was poured therein and mixed, and adjusted to a submerged condition of water depth 4 cm. After seeds of Echinochloa crus-galli, Scirpus juncoides and Monochoria vaginalis were sown in the cup, rice seedlings at 2.5th leaf stage were transplanted. On the day when the seeds were sown, the wettable powder of the present invention prepared according to Formulation Example 1 was diluted with water so as to give a predetermined formulation amount, and the surface of the water was treated with the diluted wettable powder. The plants were grown by putting the cup in a green house at 25 to 30° C., and investigated on herbicidal effect against each weed 3 weeks after treatment with the herbicide according to the following criteria.
(§7) 5 Herbicidal rate 90% or more (almost complete death)
(§8) 4 Herbicidal rate 70% or more and less than 90%
(§9) 3 Herbicidal rate 40% or more and less than 70%
(§10) 2 Herbicidal rate 20% or more and less than 40%
(§11) 1 Herbicidal rate 5% or more and less than 20%
(§12) 0 Herbicidal rate 5% or less (little effect)

Echinochloa crus-galli [17] = experiment: as above; type: in vivo; settings: 0.64 g/a, water surface treated on day of sowing, 3 weeks after treatment
Description: as §5, §6, §7, §8, §9, §10, §11, §12

Monochoria vaginalis [18] = experiment: as above; type: in vivo; settings: 0.64 g/a, water surface treated on day of sowing, 3 weeks after treatment
Description: as §5, §6, §7, §8, §9, §10, §11, §12

Scirpus juncoides [19] = experiment: Herbicidal effect test in submerged condition by treatment during weed-growth stage (1); type: in vivo; settings: 0.64 g/a, treated at 1st to 2nd leaf stage, 3 weeks after treatment
Experimental: (§13) Herbicidal Effect Test in Submerged Condition by Treatment During Weed-Growth Stage (1) After alluvial soil was placed in a styrol cup of 1/30000 are, water was poured therein and mixed, and adjusted to a submerged condition of water depth 4 cm. After seeds of Echinochloa crus-galli, Scirpus juncoides and Monochoria vaginalis were sown in the cup, the plants were grown by putting the cup in a green house at 25 to 30° C. When Echinochloa crus-galli, Scirpus juncoides and Monochoria vaginalis reached 1st to 2nd leaf stage, the wettable powder of the present invention prepared according to Formulation Example 1 was diluted with water so as to give a predetermined formulation amount, and the surface of the water was treated with the diluted wettable powder. The herbicidal effect for each plant was investigated 3 weeks after treatment with the herbicide according to the criteria indicated in Test Example 1.

Echinochloa crus-galli [20] = experiment: as above; type: in vivo; settings: 0.64 g/a, treated at 1st to 2nd leaf stage, 3 weeks after treatment
Experimental: as §13

Monochoria vaginalis [21] = experiment: as above; type: in vivo; settings: 0.64 g/a, treated at 1st to 2nd leaf stage, 3 weeks after treatment
Experimental: as §13

Abutilon avicennae [22] = experiment: Herbicidal effect test by soil treatment; type: in vivo; settings: 1.6 g/a, 3 weeks after treatment
Description: as §1, §2

Ambrosia elatior [23] = experiment: Herbicidal effect test by soil treatment; type: in vivo; settings: 1.6 g/a, 3 weeks after treatment
Description: as §1, §2

soybean (Glycine max) [24] = experiment: Herbicidal effect test by soil treatment; type: in vivo; settings: 1.6 g/a, 3 weeks after treatment
Description: as §1, §2

Setaria viridis [25] = experiment: Herbicidal effect test by soil treatment; type: in vivo; settings: 1.6 g/a, 3 weeks after treatment
Description: as §1, §2

Beta vulgaris (beet) [26] = experiment: Herbicidal effect test by soil treatment; type: in vivo; settings: 1.6 g/a, 3 weeks after treatment
Description: as §1, §2

corn (Zea mays) [27] = experiment: Herbicidal effect test by soil treatment; type: in vivo; settings: 1.6 g/a, 3 weeks after treatment
Description: as §1, §2

Stellaria media [28] = experiment: Herbicidal effect test by soil treatment; type: in vivo; settings: 1.6 g/a, 3 weeks after treatment
Description: as §1, §2

Digitaria adscendes [29] = experiment: Herbicidal effect test by soil treatment; type: in vivo; settings: 1.6 g/a, 3 weeks after treatment
Description: as §1, §2

Echinochloa crus-galli [30] = experiment: Herbicidal effect test by soil treatment; type: in vivo; settings: 1.6 g/a, 3 weeks after treatment
Description: as §1, §2

Polygonum blumei [31] = experiment: Herbicidal effect test by soil treatment; type: in vivo; settings: 1.6 g/a, 3 weeks after treatment
Description: as §1, §2

Chenopodium album [32] = experiment: Herbicidal effect test by soil treatment; type: in vivo; settings: 1.6 g/a, 3 weeks after treatment
Description: as §1, §2

Amaranthus retroflexus [33] = experiment: Herbicidal effect test by soil treatment; type: in vivo; settings: 1.6 g/a, 3 weeks after treatment
Description: as §1, §2

Question: What does the source list for `COc1cc(OC)nc(NC(=O)NS(=O)(=O)c2c(C3=NOCC(C)O3)c(C)nn2C)n1` (centres unmarked) [Compound 5, N-((4,6-dimethoxypyrimidin-2-yl)aminocarbonyl)-1,3-dimethyl-4-(5-methyl-5H,6H-1,4,2-dioxadin-3-yl)pyrazole-5-sulfonamide]?
Answer: herbicidal effect, d: direct sown rice (direct sown rice [1]): 5 (Herbicidal rate 90% or more (almost complete death)); herbicidal effect, d: direct sown rice (direct sown rice [2]): 3 (Herbicidal rate 40% or more and less than 70%); herbicidal effect, H: Abutilon avicennae (Abutilon avicennae [3]): 5 (Herbicidal rate 90% or more (almost complete death)); herbicidal effect, I: Ambrosia elatior (Ambrosia elatior [4]): 5 (Herbicidal rate 90% or more (almost complete death)); herbicidal effect, c: soybean (Glycine max) (soybean (Glycine max) [5]): 5 (Herbicidal rate 90% or more (almost complete death)); herbicidal effect, E: Setaria viridis (Setaria viridis [6]): 4 (Herbicidal rate 70% or more and less than 90%); herbicidal effect, f: Beta vulgaris (beet) (Beta vulgaris (beet) [7]): 5 (Herbicidal rate 90% or more (almost complete death)); herbicidal effect, b: corn (Zea mays) (corn (Zea mays) [8]): 5 (Herbicidal rate 90% or more (almost complete death)); herbicidal effect, G: Black-grass (Black-grass): 5 (Herbicidal rate 90% or more (almost complete death)); herbicidal effect, M: Stellaria media (Stellaria media [9]): 5 (Herbicidal rate 90% or more (almost complete death)); herbicidal effect, D: Digitaria adscendes (Digitaria adscendes [10]): 5 (Herbicidal rate 90% or more (almost complete death)); herbicidal effect, F: Avena fatua (Avena fatua): 5 (Herbicidal rate 90% or more (almost complete death)); herbicidal effect, A: Echinochloa crus-galli (Echinochloa crus-galli [11]): 5 (Herbicidal rate 90% or more (almost complete death)); herbicidal effect, L: Polygonum blumei (Polygonum blumei [12]): 5 (Herbicidal rate 90% or more (almost complete death)); herbicidal effect, K: Chenopodium album (Chenopodium album [13]): 5 (Herbicidal rate 90% or more (almost complete death)); herbicidal effect, J: Amaranthus retroflexus (Amaranthus retroflexus [14]): 5 (Herbicidal rate 90% or more (almost complete death)); herbicidal effect, e: Triticum aestivum (wheat) [15]: 5 (Herbicidal rate 90% or more (almost complete death)); herbicidal effect, B: Scirpus juncoides (Scirpus juncoides [16]): 5 (Herbicidal rate 90% or more (almost complete death)); herbicidal effect, A: Echinochloa crus-galli (Echinochloa crus-galli [17]): 5 (Herbicidal rate 90% or more (almost complete death)); herbicidal effect, C: Monochoria vaginalis (Monochoria vaginalis [18]): 5 (Herbicidal rate 90% or more (almost complete death)); herbicidal effect, B: Scirpus juncoides (Scirpus juncoides [19]): 5 (Herbicidal rate 90% or more (almost complete death)); herbicidal effect, A: Echinochloa crus-galli (Echinochloa crus-galli [20]): 5 (Herbicidal rate 90% or more (almost complete death)); herbicidal effect, C: Monochoria vaginalis (Monochoria vaginalis [21]): 5 (Herbicidal rate 90% or more (almost complete death)); herbicidal effect, H: Abutilon avicennae (Abutilon avicennae [22]): 4 (Herbicidal rate 70% or more and less than 90%); herbicidal effect, I: Ambrosia elatior (Ambrosia elatior [23]): 5 (Herbicidal rate 90% or more (almost complete death)); herbicidal effect, c: soybean (Glycine max) (soybean (Glycine max) [24]): 5 (Herbicidal rate 90% or more (almost complete death)); herbicidal effect, E: Setaria viridis (Setaria viridis [25]): 4 (Herbicidal rate 70% or more and less than 90%); herbicidal effect, f: Beta vulgaris (beet) (Beta vulgaris (beet) [26]): 5 (Herbicidal rate 90% or more (almost complete death)); herbicidal effect, b: corn (Zea mays) (corn (Zea mays) [27]): 5 (Herbicidal rate 90% or more (almost complete death)); herbicidal effect, M: Stellaria media (Stellaria media [28]): 5 (Herbicidal rate 90% or more (almost complete death)); herbicidal effect, D: Digitaria adscendes (Digitaria adscendes [29]): 5 (Herbicidal rate 90% or more (almost complete death)); herbicidal effect, A: Echinochloa crus-galli (Echinochloa crus-galli [30]): 5 (Herbicidal rate 90% or more (almost complete death)); herbicidal effect, L: Polygonum blumei (Polygonum blumei [31]): 5 (Herbicidal rate 90% or more (almost complete death)); herbicidal effect, K: Chenopodium album (Chenopodium album [32]): 5 (Herbicidal rate 90% or more (almost complete death)); herbicidal effect, J: Amaranthus retroflexus (Amaranthus retroflexus [33]): 5 (Herbicidal rate 90% or more (almost complete death))
